Patent publication US20160097044A1, “Antimicrobial Enzyme Fusions Reduce Resistance and Kill Intracellular Staphylococcus aureus” (The United States of America, as Represented by the …, priority 2014, published 2016)

B1: K: 495 amino-acid staphylococcal phage K endolysin LysK, C-terminal His6 tag; SEQ ID NO:3 (protein)
chain: MAKTQAEINKRLDAYAKGTVDSPYRVKKATSYDPSFGVMEAGAIDADGYYHAQCQDLITDYVLWLTDNKVRTWGNAKDQIKQSYGTGFKIHENKPSTVPKKGWIAVFTSGSYEQWGHIGIVYDGGNTSTFTILEQNWNGYANKKPTKRVDNYYGLTHFIEIPVKAGTTVKKETAKKSASKTPAPKKKATLKVSKNHINYTMDKRGKKPEGMVIHNDAGRSSGQQYENSLANAGYARYANGIAHYYGSEGYVWEAIDAKNQIAWHTGDGTGANSGNFRFAGIEVCQSMSASDAQFLKNEQAVFQFTAEKFKEWGLTPNRKTVRLHMEFVPTACPHRSMVLHTGFNPVTQGRPSQAIMNKLKDYFIKQIKNYMDKGTSSSTVVKDGKTSSASTPATRPVTGSWKKNQYGTWYKPENATFVNGNQPIVTRIGSPFLNAPVGGNLPAGATIVYDEVCIQAGHIWIGYNAYNGNRVYCPVRTCQGVPPNQIPGVAWGVFKLEHHHHHH
modifications: C-terminal His6 tag; Phage K

Columns and labels:
[1] = system: S. aureus strain Newman; format: cell-based; conditions: tenth round compared to first exposure
Description: For the MIC repeated exposure method, MIC determinations were performed with S. aureus strain Newman. 100 μl of S. aureus strain Newman culture that survived at ½ the MIC (the first well with visible growth) for each round was inoculated into 5 ml TSB and cultivated to mid-log phase growth. This culture was used as the inoculum for the next round of MIC exposure (overnight growth), and the cycle was repeated for 10 rounds.
Development of resistance to the triple-acting fusion enzymes was tested on S. aureus strain Newman and compared to both parental enzymes applied individually or simultaneously. […] Survivors of the ten round exposure to peptidoglycan hydrolase were passaged five times in medium with no peptidoglycan hydrolase added. […] We compared our triple-acting fusions to small molecule antibiotics in similar assays.

[2] = system: S. warneri MP06; test: Minimum Inhibitory Concentration (MIC) assay; format: cell-based, Staphylococcus warneri; conditions: Mastitis isolate S. warneri MP06
[3] = system: USA 200 (NRS 383); test: Minimum Inhibitory Concentration (MIC) assay; format: cell-based, S. aureus
Description: (§1) The Minimum Inhibitory Concentrations (MIC) of each protein for multiple S. aureus strains was determined as previously described (Jones et al. 1985. In: Manual of Clinical Microbiology, Eds. Balows et al. American Society of Microbiology, Washington D.C., pp. 972-977) with the following modifications. Enzymes were serially diluted two fold across a 96 well plate, such that after dilution, 50 μl of the enzyme solution in 300 mM NaCl, 50 mM NaH2PO4, 30% glycerol pH 7.5, remained in each well. To each well was added 50 μl of TSB and 100 μl of S. aureus Newman in TSB (diluted to 5×10^6 cells/ml). The plates were incubated 20 h at 37° C. and read with a 96 well plate reader. MIC determination values were reported as the median of ≧4 replicates (Table 1).

[4] = system: USA 600 (NRS 22); test: Minimum Inhibitory Concentration (MIC) assay; format: cell-based, S. aureus
Description: as §1

[5] = system: NRS 271; test: Minimum Inhibitory Concentration (MIC) assay; format: cell-based, S. aureus
Description: as §1

[6] = system: NRS 193; test: Minimum Inhibitory Concentration (MIC) assay; format: cell-based, S. aureus
Description: as §1

[7] = system: USA 400 (NRS 123); test: Minimum Inhibitory Concentration (MIC) assay; format: cell-based, S. aureus
Description: as §1

[8] = system: NRS 192; test: Minimum Inhibitory Concentration (MIC) assay; format: cell-based, S. aureus
Description: as §1

[9] = system: Sanger 252 (NRS 71); test: Minimum Inhibitory Concentration (MIC) assay; format: cell-based, S. aureus
Description: as §1

[10] = system: NRS 194; test: Minimum Inhibitory Concentration (MIC) assay; format: cell-based, S. aureus
Description: as §1

[11] = system: USA 300 (NRS 384); test: Minimum Inhibitory Concentration (MIC) assay; format: cell-based, S. aureus
Description: as §1

[12] = system: USA 500 (NRS 385); test: Minimum Inhibitory Concentration (MIC) assay; format: cell-based, S. aureus
Description: as §1

[13] = system: NRS 209; test: Minimum Inhibitory Concentration (MIC) assay; format: cell-based, S. aureus
Description: as §1

[14] = system: USA 100 (NRS 382); test: Minimum Inhibitory Concentration (MIC) assay; format: cell-based, S. aureus
Description: as §1

[15] = system: N315 (NRS 70); test: Minimum Inhibitory Concentration (MIC) assay; format: cell-based, S. aureus
Description: as §1

[16] = system: S. xylosus MP05; test: Minimum Inhibitory Concentration (MIC) assay; format: cell-based, Staphylococcus xylosus; conditions: Mastitis isolate S. xylosus MP05
[17] = system: S. hyicus MP01; test: Minimum Inhibitory Concentration (MIC) assay; format: cell-based, Staphylococcus hyicus; conditions: Mastitis isolate S. hyicus MP01
[18] = system: S. aureus Newman; test: Minimum Inhibitory Concentration (MIC) assay; format: cell-based; conditions: for Minimum Inhibitory Conc. (median μg/ml): S. aureus Newman
Description: as §1

[19] = system: S. aureus Newbould 305; test: Minimum Inhibitory Concentration (MIC) assay; format: cell-based; conditions: Mastitis isolate S. aureus Newbould 305
Description: as §1

[20] = system: S. aureus ALR; test: Minimum Inhibitory Concentration (MIC) assay; format: cell-based; conditions: S. aureus ALR
Description: as §1

[21] = system: S. aureus SA113 biofilms; test: Static biofilm reduction model; format: cell-based; conditions: 1 h treatment, compared to buffer treated biofilms
Description: S. aureus SA113 biofilms were treated for 1 h with 100 μl of each enzyme individually or as equimolar mixtures of LysK and lysostaphin (white bars) in 300 mM NaCl, 50 mM NaH2PO4, 30% glycerol. Constructs are named as in FIG. 1a. Results are reported as the percentage reduction in biofilm compared to buffer treated biofilms. Data presented represents 4 replicates. Values represent means±[…]. Asterisks indicate significant differences (single factor ANOVA with t-test post hoc analysis Sidák correction) as compared to LysK (K) at that concentration. Adjusted alpha p<0.026. Peptidoglycan hydrolase constructs: lysostaphin (L), LysK (K), triple fusion K-L, and triple fusion (L-K), as named in FIG. 1a.
In the static biofilm reduction model, biofilms were produced as previously described (Gross et al. 2001. Infect. Immun. 69:3423-3426) with the following modifications. S. aureus strains were grown overnight in 5 ml TSB supplemented with 0.25% D(+)-glucose without shaking at 37° C. The culture was diluted 1/200 in fresh culture medium, and 200 μl was added to each well of a 96 well microtiter plate and incubated without shaking for 24 h at 37° C. Biofilms in the wells were washed twice with 200 μl SLB, treated with […] peptidoglycan hydrolase (Lysostaphin, LysK and the triple fusion proteins K-L and L-K) in SLB at concentrations indicated (FIG. 4) for 1 h at room temperature, and washed twice with 100 μl SLB. Adherent bacteria were fixed with 200 μl 95% ethanol-5% glacial acetic acid for 20 min, washed once with water, and stained with 100 μl 0.4% crystal violet for 15 min at room temperature. Excess stain was removed with 3 water washes. Bound stain was resolubilized in 33% acetic acid, and 20 μl was transferred to a 96 well plate containing 180 μl water. The OD590nm was determined in a Spectra Max plate reader. Percent reduction represents the difference in absorbance between biofilms exposed to buffer only and experimental wells that were exposed to the peptidoglycan hydrolases.
Static biofilms were created with S. aureus strain SA113 in 96 well dishes and treated for one hour with 100 μl of the indicated concentrations of each enzyme individually or as an equimolar mixture of LysK and lysostaphin.

[22] = first exposure of the resistance development experiment, FIG. 1b
[23] = first exposure, molar concentration in brackets

| Molecule | increase in MIC after 10 rounds of sub-lethal exposure [1] | Minimum Inhibitory Conc. (median μg/ml) [2] | Minimum Inhibitory Conc. (median μg/ml) [3] | Minimum Inhibitory Conc. (median μg/ml) [4] | Minimum Inhibitory Conc. (median μg/ml) [5] | Minimum Inhibitory Conc. (median μg/ml) [6] | Minimum Inhibitory Conc. (median μg/ml) [7] | Minimum Inhibitory Conc. (median μg/ml) [8] | Minimum Inhibitory Conc. (median μg/ml) [9] | Minimum Inhibitory Conc. (median μg/ml) [10] | Minimum Inhibitory Conc. (median μg/ml) [11] | Minimum Inhibitory Conc. (median μg/ml) [12] | Minimum Inhibitory Conc. (median μg/ml) [13] | Minimum Inhibitory Conc. (median μg/ml) [14] | Minimum Inhibitory Conc. (median μg/ml) [15] | Minimum Inhibitory Conc. (median μg/ml) [16] | Minimum Inhibitory Conc. (median μg/ml) [17] | Minimum Inhibitory Conc. (median μg/ml) [18] | First exposure MIC [18, 22] | First exposure MIC [18, 23] | other results |
| --- | --- | --- | --- | --- | --- | --- | --- | --- | --- | --- | --- | --- | --- | --- | --- | --- | --- | --- | --- | --- | --- |
| K-L: both LysK lytic domains fused to the N-terminus of lysostaphin; SEQ ID NO:5, protein SEQ ID NO:6 | 8 fold | 5.3 µg/mL | 5.5 µg/mL | 7.0 µg/mL | 7.0 µg/mL | 7.0 µg/mL | 7.0 µg/mL | 11 µg/mL | 5.5 µg/mL | 14 µg/mL | 11 µg/mL | 7.0 µg/mL | 7.0 µg/mL | 14 µg/mL | 7.0 µg/mL | 3.5 µg/mL | 1.8 µg/mL | 7.0 µg/mL | 7 µg/mL | 0.097 µM | Minimum Inhibitory Conc. (median μg/ml) [19]: 11 µg/mL; Minimum Inhibitory Conc. (median μg/ml) [20]: 7.0 µg/mL; static biofilm reduction (in words) [21]: effectively reduced staphylococcal biofilms |
| L: 247 amino acid mature (secreted) lysostaphin, staphylolytic bacteriocin, C-terminal His6 tag; SEQ ID NO:1 [reference compound] | 585 fold | 1.5 µg/mL | 1.2 µg/mL | 1.2 µg/mL | 0.58 µg/mL | 1.2 µg/mL | 1.2 µg/mL | 1.2 µg/mL | 0.58 µg/mL | 1.2 µg/mL | 1.2 µg/mL | 1.2 µg/mL | 0.97 µg/mL | 1.2 µg/mL | 0.68 µg/mL | 0.39 µg/mL | 0.29 µg/mL | 0.77 µg/mL | 0.77 µg/mL | 0.027 µM | Minimum Inhibitory Conc. (median μg/ml) [19]: 12 µg/mL; Minimum Inhibitory Conc. (median μg/ml) [20]: 0.77 µg/mL; static biofilm reduction (in words) [21]: effectively reduced staphylococcal biofilms |
| B1 | 42 fold | 28 µg/mL | 34 µg/mL | 75 µg/mL | 44 µg/mL | 37 µg/mL | 75 µg/mL | 80 µg/mL | 29 µg/mL | 69 µg/mL | 75 µg/mL | 67 µg/mL | 40 µg/mL | 96 µg/mL | 37 µg/mL | 8.4 µg/mL | 8.4 µg/mL | 47 µg/mL | 47 µg/mL | 0.84 µM | Minimum Inhibitory Conc. (median μg/ml) [19]: 34 µg/mL; Minimum Inhibitory Conc. (median μg/ml) [20]: 34 µg/mL; static biofilm reduction (in words) [21]: effectively reduced staphylococcal biofilms |
